Measurements reported in PubChem BioAssay AID1259407 (Chemical Carcinogenesis Research Information System (CCRIS), 2018).
The source made the active and inactive calls. The rule behind the calls is not given here.

Test system: CCRIS mutagenicity, Ames/micronucleus/aberration tests
Test: CCRIS mutagenicity studies
[1] = Test System: AMES SALMONELLA TYPHIMURIUM, Strain/Indicator: TA98, Metabolic Activation: NONE, Method: STANDARD PLATE
[2] = Test System: AMES SALMONELLA TYPHIMURIUM, Strain/Indicator: TA98, Metabolic Activation: RAT, LIVER, S-9, AROCLOR 1254, Method: STANDARD PLATE
[3] = Test System: AMES SALMONELLA TYPHIMURIUM, Strain/Indicator: TA100, Metabolic Activation: NONE, Method: STANDARD PLATE
[4] = Test System: AMES SALMONELLA TYPHIMURIUM, Strain/Indicator: TA100, Metabolic Activation: RAT, LIVER, S-9, AROCLOR 1254, Method: STANDARD PLATE

SMILES: O=Cc1ccccc1[N+](=O)[O-]
- mutagenic call (Test System: AMES SALMONELLA TYPHIMURIUM, Strain/Indicator: TA98, Metabolic Activation: HAMSTER, LIVER, S-9, AROCLOR 1254, Method: STANDARD PLATE): inactive; negative
- mutagenic call (Test System: AMES SALMONELLA TYPHIMURIUM, Strain/Indicator: TA98, Metabolic Activation: NONE, Method: PREINCUBATION): inactive; negative
- mutagenic call [1]: inactive; negative
- mutagenic call [2]: inactive; negative
- mutagenic call (Test System: AMES SALMONELLA TYPHIMURIUM, Strain/Indicator: TA98, Metabolic Activation: RAT, LIVER, S-9, KANECHLOR 500, Method: PREINCUBATION): inactive; negative
- mutagenic call (Test System: AMES SALMONELLA TYPHIMURIUM, Strain/Indicator: TA98, Method: PREINCUBATION): inactive; negative
- mutagenic call (Test System: AMES SALMONELLA TYPHIMURIUM, Strain/Indicator: TA100, Metabolic Activation: HAMSTER, LIVER, S-9, AROCLOR 1254, Method: STANDARD PLATE): inactive; negative
- mutagenic call (Test System: AMES SALMONELLA TYPHIMURIUM, Strain/Indicator: TA100, Metabolic Activation: NONE, Method: PREINCUBATION): inactive; negative
- mutagenic call [3]: inactive; negative
- mutagenic call [4]: inactive; negative
- mutagenic call (Test System: AMES SALMONELLA TYPHIMURIUM, Strain/Indicator: TA100, Metabolic Activation: RAT, LIVER, S-9, KANECHLOR 500, Method: PREINCUBATION): inactive; negative
- mutagenic call (Test System: AMES SALMONELLA TYPHIMURIUM, Strain/Indicator: TA100, Method: PREINCUBATION): inactive; negative
- mutagenic call (Test System: AMES SALMONELLA TYPHIMURIUM, Strain/Indicator: TA1535, Metabolic Activation: HAMSTER, LIVER, S-9, AROCLOR 1254, Method: STANDARD PLATE): inactive; negative
- mutagenic call (Test System: AMES SALMONELLA TYPHIMURIUM, Strain/Indicator: TA1535, Metabolic Activation: NONE, Method: PREINCUBATION): inactive; negative
- mutagenic call (Test System: AMES SALMONELLA TYPHIMURIUM, Strain/Indicator: TA1535, Metabolic Activation: NONE, Method: STANDARD PLATE): inactive; negative
- mutagenic call (Test System: AMES SALMONELLA TYPHIMURIUM, Strain/Indicator: TA1535, Metabolic Activation: RAT, LIVER, S-9, AROCLOR 1254, Method: STANDARD PLATE): inactive; negative
- mutagenic call (Test System: AMES SALMONELLA TYPHIMURIUM, Strain/Indicator: TA1535, Method: PREINCUBATION): inactive; negative
- mutagenic call (Test System: AMES SALMONELLA TYPHIMURIUM, Strain/Indicator: TA1537, Metabolic Activation: HAMSTER, LIVER, S-9, AROCLOR 1254, Method: STANDARD PLATE): inactive; negative
- mutagenic call (Test System: AMES SALMONELLA TYPHIMURIUM, Strain/Indicator: TA1537, Metabolic Activation: NONE, Method: PREINCUBATION): inactive; negative
- mutagenic call (Test System: AMES SALMONELLA TYPHIMURIUM, Strain/Indicator: TA1537, Metabolic Activation: NONE, Method: STANDARD PLATE): inactive; negative
- mutagenic call (Test System: AMES SALMONELLA TYPHIMURIUM, Strain/Indicator: TA1537, Metabolic Activation: RAT, LIVER, S-9, AROCLOR 1254, Method: STANDARD PLATE): inactive; negative
- mutagenic call (Test System: AMES SALMONELLA TYPHIMURIUM, Strain/Indicator: TA1537, Method: PREINCUBATION): inactive; negative
- mutagenic call (Test System: AMES SALMONELLA TYPHIMURIUM, Strain/Indicator: TA1538, Metabolic Activation: HAMSTER, LIVER, S-9, AROCLOR 1254, Method: STANDARD PLATE): inactive; negative
- mutagenic call (Test System: AMES SALMONELLA TYPHIMURIUM, Strain/Indicator: TA1538, Metabolic Activation: NONE, Method: PREINCUBATION): inactive; negative
- mutagenic call (Test System: AMES SALMONELLA TYPHIMURIUM, Strain/Indicator: TA1538, Metabolic Activation: NONE, Method: STANDARD PLATE): inactive; negative
- mutagenic call (Test System: AMES SALMONELLA TYPHIMURIUM, Strain/Indicator: TA1538, Metabolic Activation: RAT, LIVER, S-9, AROCLOR 1254, Method: STANDARD PLATE): inactive; negative
- mutagenic call (Test System: AMES SALMONELLA TYPHIMURIUM, Strain/Indicator: TA1538, Method: PREINCUBATION): inactive; negative
- mutagenic call (Test System: Mouse lymphoma, Strain/Indicator: L5178Y (tk+/tk-), Metabolic Activation: None, Method: Suspension/plate): inactive; negative
- mutagenic call (Test System: Mouse lymphoma, Strain/Indicator: L5178Y (tk+/tk-), Metabolic Activation: Rat, Liver, S-9, Aroclor 1254, Method: Suspension/plate): inactive; negative

SMILES: COC(=O)C1(C(N)=O)OC1(C)C(O)C(C)C (stereo not given)
- mutagenic call (Test System: AMES SALMONELLA TYPHIMURIUM, Strain/Indicator: TA98, Metabolic Activation: NONE, Method: DISK ASSAY): inactive; negative
- mutagenic call [1]: inactive; negative
- mutagenic call (Test System: AMES SALMONELLA TYPHIMURIUM, Strain/Indicator: TA98, Metabolic Activation: RAT, LIVER, S-9, AROCLOR 1254, Method: DISK ASSAY): inactive; negative
- mutagenic call [2]: active; positive
- mutagenic call [3]: inactive; negative
- mutagenic call [4]: inactive; negative
